In ChEMBL document CHEMBL5465560, “Selectivity Literature for EUbOPEN Chemogenomic Library” (2024):
Each block holds one compound with its values, some of them ahead of it.

Columns and labels:
[1] = target: T1, Ephrin type-B receptor 2 (Homo sapiens) (UniProt P29323); test: Selectivity interaction (KinomeScan (DiscoverX)) EUB0000655a EPHB2; conditions: at 10 µM
T1 sequence (whole entry): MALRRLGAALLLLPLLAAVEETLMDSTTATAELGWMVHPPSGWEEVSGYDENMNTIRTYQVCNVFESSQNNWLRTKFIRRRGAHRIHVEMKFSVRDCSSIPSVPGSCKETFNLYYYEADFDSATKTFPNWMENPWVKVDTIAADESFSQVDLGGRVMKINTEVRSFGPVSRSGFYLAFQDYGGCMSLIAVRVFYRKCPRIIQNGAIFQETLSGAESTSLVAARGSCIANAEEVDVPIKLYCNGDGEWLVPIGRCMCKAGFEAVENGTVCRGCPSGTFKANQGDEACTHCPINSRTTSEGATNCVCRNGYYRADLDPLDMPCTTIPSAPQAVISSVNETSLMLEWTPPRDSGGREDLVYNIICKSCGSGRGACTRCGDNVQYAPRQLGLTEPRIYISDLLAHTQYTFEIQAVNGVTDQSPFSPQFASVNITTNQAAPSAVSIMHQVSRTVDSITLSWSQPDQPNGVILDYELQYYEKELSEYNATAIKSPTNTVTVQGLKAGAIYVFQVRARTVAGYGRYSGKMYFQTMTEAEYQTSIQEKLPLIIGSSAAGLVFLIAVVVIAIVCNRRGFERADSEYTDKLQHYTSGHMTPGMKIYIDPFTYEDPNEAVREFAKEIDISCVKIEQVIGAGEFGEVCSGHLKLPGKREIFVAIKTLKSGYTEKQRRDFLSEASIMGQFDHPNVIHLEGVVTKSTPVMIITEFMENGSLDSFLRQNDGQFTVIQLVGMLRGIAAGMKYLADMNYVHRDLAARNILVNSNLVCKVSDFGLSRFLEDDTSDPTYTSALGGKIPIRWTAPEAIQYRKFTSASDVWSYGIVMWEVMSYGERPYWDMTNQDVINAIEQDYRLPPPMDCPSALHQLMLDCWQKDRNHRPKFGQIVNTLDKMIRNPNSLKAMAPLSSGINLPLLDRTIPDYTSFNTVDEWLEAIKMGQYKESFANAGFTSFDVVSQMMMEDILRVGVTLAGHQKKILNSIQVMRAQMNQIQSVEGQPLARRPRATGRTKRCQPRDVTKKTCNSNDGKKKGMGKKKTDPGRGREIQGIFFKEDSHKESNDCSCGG

[2] = target: T2, Ephrin type-A receptor 3 (Homo sapiens) (UniProt P29320); test: Selectivity interaction (KinomeScan (DiscoverX)) EUB0000607a EPHA3; conditions: at 10 µM
T2 sequence (whole entry): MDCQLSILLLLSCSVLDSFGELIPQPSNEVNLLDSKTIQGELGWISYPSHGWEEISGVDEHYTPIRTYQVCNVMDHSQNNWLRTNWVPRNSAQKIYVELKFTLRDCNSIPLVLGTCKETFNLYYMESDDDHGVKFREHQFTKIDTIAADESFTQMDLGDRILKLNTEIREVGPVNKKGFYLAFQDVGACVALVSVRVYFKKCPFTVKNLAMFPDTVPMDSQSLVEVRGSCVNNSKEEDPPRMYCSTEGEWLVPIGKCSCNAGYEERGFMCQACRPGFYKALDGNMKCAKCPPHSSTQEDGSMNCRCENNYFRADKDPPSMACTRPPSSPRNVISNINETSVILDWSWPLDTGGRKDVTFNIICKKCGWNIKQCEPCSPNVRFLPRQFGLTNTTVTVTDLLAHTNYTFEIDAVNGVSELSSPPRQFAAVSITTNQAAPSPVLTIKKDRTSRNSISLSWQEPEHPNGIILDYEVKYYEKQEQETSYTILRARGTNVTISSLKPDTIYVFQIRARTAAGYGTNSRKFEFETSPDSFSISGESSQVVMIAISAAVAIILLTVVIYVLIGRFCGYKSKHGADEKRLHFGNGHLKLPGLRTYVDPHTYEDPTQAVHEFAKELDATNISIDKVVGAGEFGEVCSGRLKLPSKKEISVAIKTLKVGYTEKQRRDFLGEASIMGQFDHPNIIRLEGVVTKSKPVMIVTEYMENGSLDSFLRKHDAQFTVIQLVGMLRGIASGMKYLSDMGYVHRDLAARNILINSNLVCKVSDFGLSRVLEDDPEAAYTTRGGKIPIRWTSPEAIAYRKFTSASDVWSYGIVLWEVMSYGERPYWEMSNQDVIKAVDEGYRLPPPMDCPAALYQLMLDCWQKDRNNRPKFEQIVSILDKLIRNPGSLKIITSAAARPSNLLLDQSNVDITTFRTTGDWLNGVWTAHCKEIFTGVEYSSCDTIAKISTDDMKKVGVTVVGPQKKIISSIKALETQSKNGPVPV

[3] = target: Tyrosine-protein kinase CSK (Homo sapiens) (UniProt P41240); test: Selectivity interaction (ActivX KiNativ screen (kinase selectivity in THP-1 cell lysates)) EUB0000639a CSK; format: subcellular; conditions: lysate, at 0.2 µM
[4] = target: ALK tyrosine kinase receptor (Homo sapiens, UniProt Q9UM73); test: Selectivity interaction (ProQinase) EUB0000171b ALK; conditions: at 5 µM
[5] = target: T1, Ephrin type-B receptor 2 (Homo sapiens); test: Selectivity interaction (KinomeScan (DiscoverX)) EUB0001049a EPHB2; conditions: at 1 µM

Sequence of ALK tyrosine kinase receptor (Q9UM73 19-1620 limits assumed): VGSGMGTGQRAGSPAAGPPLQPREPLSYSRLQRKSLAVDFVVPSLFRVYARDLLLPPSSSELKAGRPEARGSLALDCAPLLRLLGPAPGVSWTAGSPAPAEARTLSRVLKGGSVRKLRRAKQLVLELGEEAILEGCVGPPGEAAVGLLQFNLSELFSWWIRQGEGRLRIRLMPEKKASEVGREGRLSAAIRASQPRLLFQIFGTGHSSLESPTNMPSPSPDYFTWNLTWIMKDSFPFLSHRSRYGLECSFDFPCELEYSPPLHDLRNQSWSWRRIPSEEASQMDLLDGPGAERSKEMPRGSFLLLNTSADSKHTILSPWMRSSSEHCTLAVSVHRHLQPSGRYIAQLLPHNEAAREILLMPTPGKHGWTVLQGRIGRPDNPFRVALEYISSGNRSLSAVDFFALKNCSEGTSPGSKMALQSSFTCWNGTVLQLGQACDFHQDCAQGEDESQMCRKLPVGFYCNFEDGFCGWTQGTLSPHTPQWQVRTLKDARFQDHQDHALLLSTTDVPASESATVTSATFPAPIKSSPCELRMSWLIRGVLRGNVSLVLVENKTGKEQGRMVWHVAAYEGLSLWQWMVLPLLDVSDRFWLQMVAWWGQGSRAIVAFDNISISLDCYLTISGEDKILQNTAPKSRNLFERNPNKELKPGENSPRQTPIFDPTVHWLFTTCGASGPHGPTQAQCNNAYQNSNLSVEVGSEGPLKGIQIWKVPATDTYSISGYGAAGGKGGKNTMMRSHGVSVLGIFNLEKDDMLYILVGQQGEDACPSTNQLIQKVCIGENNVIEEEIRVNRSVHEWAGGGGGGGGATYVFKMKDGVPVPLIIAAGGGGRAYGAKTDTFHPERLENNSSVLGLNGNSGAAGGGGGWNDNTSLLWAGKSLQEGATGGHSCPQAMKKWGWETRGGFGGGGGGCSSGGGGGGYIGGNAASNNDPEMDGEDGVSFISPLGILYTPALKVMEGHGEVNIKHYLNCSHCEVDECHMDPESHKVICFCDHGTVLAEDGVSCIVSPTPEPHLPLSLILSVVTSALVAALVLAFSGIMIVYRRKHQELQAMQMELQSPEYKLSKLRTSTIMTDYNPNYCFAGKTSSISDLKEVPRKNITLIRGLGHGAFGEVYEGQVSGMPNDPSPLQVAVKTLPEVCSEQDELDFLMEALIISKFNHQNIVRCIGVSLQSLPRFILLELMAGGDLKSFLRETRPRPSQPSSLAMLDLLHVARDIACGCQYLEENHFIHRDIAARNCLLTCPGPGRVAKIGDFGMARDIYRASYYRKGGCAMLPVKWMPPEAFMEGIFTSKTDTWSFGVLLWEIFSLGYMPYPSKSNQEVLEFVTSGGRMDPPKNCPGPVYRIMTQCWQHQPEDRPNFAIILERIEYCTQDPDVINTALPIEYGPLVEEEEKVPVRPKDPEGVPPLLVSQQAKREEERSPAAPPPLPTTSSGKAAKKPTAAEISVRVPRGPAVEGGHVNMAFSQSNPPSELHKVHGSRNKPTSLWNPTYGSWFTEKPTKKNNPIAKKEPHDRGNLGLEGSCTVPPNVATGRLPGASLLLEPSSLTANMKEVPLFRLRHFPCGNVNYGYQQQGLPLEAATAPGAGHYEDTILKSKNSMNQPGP
Sequence of Tyrosine-protein kinase CSK (Homo sapiens) (P41240 2-450 limits assumed): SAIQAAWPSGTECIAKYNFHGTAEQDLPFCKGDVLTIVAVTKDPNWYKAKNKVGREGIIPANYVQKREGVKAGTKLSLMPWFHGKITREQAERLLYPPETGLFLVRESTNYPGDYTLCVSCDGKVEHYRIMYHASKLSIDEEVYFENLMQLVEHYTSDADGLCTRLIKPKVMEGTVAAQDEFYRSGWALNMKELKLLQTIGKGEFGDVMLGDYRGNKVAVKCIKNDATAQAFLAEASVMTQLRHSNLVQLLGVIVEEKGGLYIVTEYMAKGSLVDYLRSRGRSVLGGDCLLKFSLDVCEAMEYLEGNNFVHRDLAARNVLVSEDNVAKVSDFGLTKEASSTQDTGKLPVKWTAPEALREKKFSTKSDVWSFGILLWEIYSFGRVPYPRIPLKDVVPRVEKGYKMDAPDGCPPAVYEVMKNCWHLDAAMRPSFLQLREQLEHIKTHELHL

SMILES: CN(C)CCOc1ccc(-c2nc(-c3ccncc3)c(-c3ccc4c(c3)CC/C4=N\O)[nH]2)cc1
% of control [1]: 98%

SMILES: CNC(=O)Nc1ccc(-c2nc(N3CC4CCC(C3)O4)c3cnn(C4CCC5(CC4)OCCO5)c3n2)cc1
% of control [2]: 100%

% of inhibition [3]: -6.8%
SMILES: CC[C@@H]1[C@H](F)C(=O)N[C@@H]1COc1nccc2cc(C(N)=O)c(OC)cc12 [ZIMLOVISERTIB]

% of control [4]: 96%
SMILES: C=CC(=O)Nc1cccc(C(=O)Nc2ccc(Nc3cc(-c4[nH]c(SC)nc4C)ccn3)cc2)c1

SMILES: COc1cc(Nc2nc(C)cc(-c3cnn4nc(OC)ccc34)n2)cc(C(F)(F)F)c1
% of control [5]: 92%
